Consider 31 compounds from patent US20230329236A1, “HERBICIDAL PYRIMIDINE DERIVATIVES” (MoA Technology Limited, priority 2020, published 2023).

Conditions in all cases: 336 h, Table 3, post-emergence, 14±1 days post application
One test relates to Veronica persica (VERPE). The test can be described thus: Post-emergence glasshouse test, visual injury, VERPE. Format: in vivo. The protocol: (§1) Seeds of a variety of test species are grown in a sandy loam soil mixture, Lolium multiflorum (LOLMU), Amaranthus retroflexus (AMARE), Echinochloa crus-gaffi (ECHCG), Veronica persica (VERPE), Glycine max (GLXMA), Oryza sativa (ORYSA), Zea mays (ZEAMX), spring wheat (TRZAS), Ipomoea hederacea (IPOHE), Ipomoea purpurea (PHBPU), Stellaria media (STEME), Solanum nigrum (SOLNI), Digitaria sanguinalis (DIGSA), Setaria italica (SETIT), Alopecurus myosuroides (ALOMY) and Avena fatua (AVEFA).
(§2) After sowing, at growth stage BBCH 12-14 (post-emergence), the plants are sprayed with an aqueous spray solution derived from the formulation of the technical active ingredient in acetone/water (50:50) solution containing 0.5% Tween 20 (polyoxyethlyene sorbitan monolaureate, CAS RN 9005-64-5). The test compounds are applied at the required concentration of active ingredient in g/ha. The test plants are then grown in a glasshouse under controlled environmental conditions and watered regularly as required. After 14±1 days post application (for post-emergence test), the test is evaluated by assessing the percentage damage caused to the plants in comparison with the untreated plots. The biological activities for post-emergence testing are shown below (Table 3 and Table 4) as a % visual injury.

Test [1] relates to Amaranthus retroflexus (AMARE). Kind of test: Post-emergence glasshouse test, visual injury, AMARE. Format: in vivo. The protocol:
as §1, §2

In test [2] the test system is Echinochloa crus-gaffi (ECHCG). Kind of test: Post-emergence glasshouse test, visual injury, ECHCG. Format: in vivo, Echinochloa crus-galli. Here is the method:
as §1, §2

Test [3] concerns Lolium multiflorum (LOLMU). The test can be described thus: Post-emergence glasshouse test, visual injury, LOLMU. Format: in vivo. Here is the method:
as §1, §2

What is called pest or weed control is how far the test organism was held down. On to `Cc1cc(-c2cnc(NCC3CCCC3)nc2C(C)C)on1` [Compound 107], for which the pest or weed control at 125 g/ha came out at 50% in the test on Veronica persica (VERPE), 30% in test [1], 50% in test [2] and 0% in test [3].

For the compound `Cc1cc(-c2cnc(N3Cc4ccccc4C3=N)nc2C(C)C)on1` [Compound 121], the pest or weed control at 125 g/ha amounted to 0% with Veronica persica (VERPE), 30% in test [1], 20% in test [2] and 0% in test [3].

Take `C=COCCCNc1ncc(-c2cc(C)no2)c(C(C)C)n1` [Compound 35]: the pest or weed control at 500 g/ha in the test with Veronica persica (VERPE) was determined as 98%; in test [1] it was 0%; in test [2] it was 60%; in test [3], 0%.

On to `Cc1cc(-c2cnc(NCc3cccc(Cl)c3)nc2C(C)C)on1` [Compound 117], for which the pest or weed control at 125 g/ha in the test with Veronica persica (VERPE) worked out at 70%; in test [1], 70%; in test [2] it was 70%; in test [3], 30%.

With `COc1ccc(CCNc2ncc(-c3cc(C)no3)c(C(C)C)n2)cc1OC` [Compound 34], the pest or weed control at 500 g/ha in the test on Veronica persica (VERPE) amounted to 100%; in test [1], 70%; in test [2], 80%; in test [3] it was 30%.

Consider `Cc1cc(-c2cnc(N3CCC(C(N)=O)CC3)nc2-c2ccc(C)s2)on1` [Compound 88], for which the pest or weed control at 125 g/ha in the test on Veronica persica (VERPE) was found to be 0%; in test [1], 20%; in test [2], 20%; in test [3], 0%.

As to `COc1ccc(CCNc2ncc(-c3cc(C)no3)c(C3CC3)n2)cc1OC` [Compound 78], the pest or weed control at 500 g/ha in the test with Veronica persica (VERPE) stood at 99%; in test [1], 95%; in test [2] it was 80%; in test [3], 40%.

For the compound `Cc1cc(-c2cnc(N3CCOCC3)nc2-c2ccc(C)o2)on1` [Compound 72], the pest or weed control at 500 g/ha with Veronica persica (VERPE) stood at 0%; in test [1] it was 90%; in test [2], 30%; in test [3], 0%.

Regarding `Cc1cc(-c2cnc(NCc3ccccc3Cl)nc2C(C)C)on1` [Compound 101], the pest or weed control at 62 g/ha came out at 40% in the test with Veronica persica (VERPE), 50% in test [1], 70% in test [2] and 0% in test [3].

For the compound `Cc1cc(-c2cnc(NCc3ccccn3)nc2C(C)C)on1` [Compound 39], the pest or weed control at 500 g/ha turned out to be 80% in the test with Veronica persica (VERPE), 70% in test [1], 20% in test [2] and 0% in test [3].

Consider `Cc1cc(-c2cnc(N)nc2-c2ccc(C)o2)on1` [Compound 2, 5-(3-methyl-1,2-oxazol-5-yl)-4-(5-methylfuran-2-yl)pyrimidin-2-amine], for which the pest or weed control at 500 g/ha is 0% in the test with Veronica persica (VERPE), 30% in test [1], 10% in test [2] and 40% in test [3].

Regarding `Cc1cc(-c2cnc(NCCN3CCCC3=O)nc2C(C)C)on1` [Compound 42], the pest or weed control at 500 g/ha was 60% in the test on Veronica persica (VERPE), 70% in test [1], 50% in test [2] and 10% in test [3].

With `Cc1cc(-c2cnc(NCc3ccc(F)cc3)nc2C(C)C)on1` [Compound 93], the pest or weed control at 125 g/ha with Veronica persica (VERPE) worked out at 100%; in test [1] it was 100%; in test [2], 80%; in test [3] it was 60%.

Turning to `Cc1cc(-c2cnc(N3CCN(c4ncccn4)CC3)nc2-c2ccc(C)o2)on1` [Compound 89], the pest or weed control at 125 g/ha worked out at 5% in the test on Veronica persica (VERPE), 0% in test [1], 0% in test [2] and 5% in test [3].

For `Cc1cc(-c2cnc(NCc3ccccn3)nc2C2CC2)on1` [Compound 67], the pest or weed control at 500 g/ha came out at 50% with Veronica persica (VERPE), 60% in test [1], 40% in test [2] and 20% in test [3].

Consider `Cc1cc(-c2cnc(NC3CCC3)nc2C(F)(F)F)on1` [Compound 110], for which the pest or weed control at 125 g/ha in the test with Veronica persica (VERPE) was determined as 0%; in test [1], 0%; in test [2], 0%; in test [3] it was 40%.

On to `Cc1cc(-c2cnc(N3CCC(C(N)=O)CC3)nc2C(C)C)on1` [Compound 69], for which the pest or weed control at 500 g/ha in the test on Veronica persica (VERPE) came to 60%; in test [1], 50%; in test [2] it was 0%; in test [3], 0%.

As for `Cc1cc(-c2cnc(N3CCCC3)nc2-c2ccc(C)o2)on1` [Compound 58], the pest or weed control at 500 g/ha in the test on Veronica persica (VERPE) came out at 0%; in test [1], 0%; in test [2], 10%; in test [3] it was 20%.

With `Cc1cc(-c2cnc(NCc3cccc(F)c3)nc2C2CC2)on1` [Compound 85], the pest or weed control at 125 g/ha in the test on Veronica persica (VERPE) is 50%; in test [1], 95%; in test [2], 80%; in test [3], 30%. The pest or weed control at 250 g/ha in the test on Veronica persica (VERPE) (250 g/ha) is 100%; in test [1] (250 g/ha) it was 100%; in test [2] (250 g/ha), 100%; in test [3] (250 g/ha), 40%.

Turning to `Cc1cc(-c2cnc(NCc3cccnc3)nc2C(C)C)on1` [Compound 28], the pest or weed control at 500 g/ha in the test with Veronica persica (VERPE) was found to be 98%; in test [1], 90%; in test [2], 70%; in test [3], 0%.

On to `Cc1cc(-c2cnc(NCc3ccccc3F)nc2C(C)C)on1` [Compound 55], for which the pest or weed control at 500 g/ha was 99% with Veronica persica (VERPE), 100% in test [1], 70% in test [2] and 40% in test [3].

As for `Cc1cc(-c2cnc(N3CCC(C(N)=O)CC3)nc2-c2ccc(C)o2)on1` [Compound 19], the pest or weed control at 1000 g/ha turned out to be 0% in the test on Veronica persica (VERPE) (1000 g/ha), 70% in test [1] (1000 g/ha), 20% in test [2] (1000 g/ha) and 0% in test [3] (1000 g/ha).

On to `Cc1cc(-c2cnc(N3CCCC3)nc2C(C)C)on1` [Compound 29], for which the pest or weed control at 500 g/ha in the test on Veronica persica (VERPE) was determined as 50%; in test [1], 0%; in test [2], 50%; in test [3] it was 0%.

With `Cc1cc(-c2cnc(NC3CCCC3)nc2-c2ccc(C)o2)on1` [Compound 24], the pest or weed control at 500 g/ha with Veronica persica (VERPE) was 0%; in test [1] it was 50%; in test [2] it was 70%; in test [3], 0%.

In the case of `Cc1cc(-c2cnc(N3CCN(c4ncccn4)CC3)nc2C(C)(C)C)on1` [Compound 61], the pest or weed control at 500 g/ha with Veronica persica (VERPE) was 0%; in test [1] it was 60%; in test [2] it was 0%; in test [3], 0%.

In the case of `Cc1cc(-c2cnc(NC3CCOCC3)nc2C(F)(F)F)on1` [Compound 116], the pest or weed control at 125 g/ha in the test on Veronica persica (VERPE) worked out at 95%; in test [1], 0%; in test [2], 0%; in test [3], 0%.

For the compound `Cc1cc(-c2cnc(NCc3ccc(C#N)cc3)nc2C(C)C)on1` [Compound 118], the pest or weed control at 125 g/ha turned out to be 95% with Veronica persica (VERPE), 80% in test [1], 20% in test [2] and 0% in test [3].

As to `Cc1cc(-c2cnc(NCc3ccccc3C)nc2C(C)C)on1` [Compound 98], the pest or weed control at 62 g/ha in the test with Veronica persica (VERPE) is 80%; in test [1], 60%; in test [2] it was 70%; in test [3], 0%.

For `Cc1cc(-c2cnc(NC(C)C)nc2C(F)(F)F)on1` [Compound 115], the pest or weed control at 125 g/ha came out at 60% in the test on Veronica persica (VERPE), 20% in test [1], 0% in test [2] and 0% in test [3].

In the case of `Cc1cc(-c2cnc(NCCc3c(C)noc3C)nc2C2CC2)on1` [Compound 46], the pest or weed control at 500 g/ha in the test with Veronica persica (VERPE) is 50%; in test [1] it was 90%; in test [2], 70%; in test [3] it was 60%.

With `Cc1cc(-c2cnc(NCc3ccc(F)cc3)nc2C(C)(C)C)on1` [Compound 47], the pest or weed control at 500 g/ha is 80% in the test on Veronica persica (VERPE), 40% in test [1], 50% in test [2] and 0% in test [3].
